In ChEMBL document CHEMBL1201862, “PubChem BioAssay data set” (2004):
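Grown in 96-well plates, cells were treated for 48 hours with each compound at five concentrations. Insufficient inhibition: endpoint recorded as highest concentration tested. At the GI50, growth is halved.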 The source made the active and inactive calls. No stated cut-off is given here; in the data, active = GI50 up to about 1.1 µM and inactive = higher.

Experiments:
Assay in all cases: DTP human tumour cell line panel, 48 h
[1] = tested on: NCI-H460
[2] = tested on: BT-549
[3] = tested on: Hs-578T
[4] = tested on: MDA-N
[5] = tested on: LOX IMVI
[6] = tested on: 786-0
[7] = tested on: CAKI-1
[8] = tested on: U-251
[9] = tested on: MDA-MB-435
[10] = tested on: DU-145
[11] = tested on: SR
[12] = tested on: HCT-15
[13] = tested on: UACC-62
[14] = tested on: EKVX
[15] = tested on: M14
[16] = tested on: SK-MEL-28
[17] = tested on: NCI-H23
[18] = tested on: SN12C
[19] = tested on: SNB-75
[20] = tested on: SK-MEL-5
[21] = tested on: SW-620
[22] = tested on: PC-3
[23] = tested on: SNB-19
[24] = tested on: Malme-3M
[25] = tested on: NCI/ADR-RES
[26] = tested on: HL-60
[27] = tested on: SK-MEL-2
[28] = tested on: HCC 2998
[29] = tested on: OVCAR-8
[30] = tested on: NCI-H226
[31] = tested on: UO-31
[32] = tested on: CCRF-CEM
[33] = tested on: HOP-92
[34] = tested on: MDA-MB-231
[35] = tested on: COLO 205
[36] = tested on: ACHN
[37] = tested on: UACC-257
[38] = tested on: MCF7
[39] = tested on: RXF 393
[40] = tested on: OVCAR-5
[41] = tested on: TK-10
[42] = tested on: KM12
[43] = tested on: NCI-H522
[44] = tested on: OVCAR-4
[45] = tested on: A549
[46] = tested on: SK-OV-3
[47] = tested on: A498
[48] = tested on: T47D
[49] = tested on: HOP-62
[50] = tested on: IGROV-1
[51] = tested on: K562
[52] = tested on: SF-295
[53] = tested on: HT-29
[54] = tested on: SF-539
[55] = tested on: MOLT-4
[56] = tested on: HCT-116
[57] = tested on: SF-268
[58] = tested on: OVCAR-3
[59] = tested on: RPMI-8226

Measured: GI50

C[N+]1(CCCCN2c3ccccc3Sc3cc(N=[N+]=[N-])ccc32)CCN(C(=O)CCNC(=O)Cc2ccc(C(=O)c3ccccc3)cc2)CC1
inactive: [1] 24.6 µM | [2] 29.2 µM | [3] 34 µM | [4] 24.8 µM | [5] 20.3 µM | [6] 27 µM | [7] 25.2 µM | [8] 21.6 µM | [9] 26.4 µM | [10] 19.1 µM | [11] 18.7 µM | [13] 28.5 µM | [14] 31.9 µM | [15] 23.4 µM | [16] 16 µM | [17] 26.4 µM | [18] 21.2 µM | [19] 20.3 µM | [20] 20.6 µM | [21] 29.2 µM | [22] 20.5 µM | [23] 26.9 µM | [24] 18.7 µM | [25] 35.9 µM | [26] 9.1 µM | [27] 29.4 µM | [28] 16.1 µM | [29] 34.7 µM | [30] 36.1 µM | [31] 19.3 µM | [32] 23.3 µM | [33] 18.9 µM | [34] 25.4 µM | [35] 14.7 µM | [36] 19.2 µM | [37] 31.3 µM | [38] 19.7 µM | [39] 31.5 µM | [40] 21.7 µM | [41] 11.4 µM | [42] 24.3 µM | [43] 24.4 µM | [44] 21.2 µM | [45] 27.4 µM | [46] 29 µM | [47] 26.4 µM | [48] 21.3 µM | [49] 22.6 µM | [50] 23.4 µM | [51] 7.19 µM | [52] 21.7 µM | [53] 18.1 µM | [54] 32.9 µM | [55] 23.1 µM | [56] 25.9 µM | [57] 23.4 µM | [58] 20.4 µM | [59] 18.7 µM
22.8 µM: [12]

CN(C)CCN1Nc2c3ccccc3nc3c(C(=O)NCCCN(C)CCCNC(=O)c4ccc5c6c(c7ccccc7nc46)NN5CCN(C)C)ccc1c23
0.178 µM: [12]
active: [1] < 0.01 µM | [2] 0.178 µM | [3] 0.0352 µM | [4] < 0.01 µM | [5] < 0.01 µM | [6] < 0.01 µM | [7] 0.199 µM | [8] < 0.01 µM | [9] < 0.01 µM | [10] 0.0217 µM | [11] < 0.01 µM | [13] 0.0173 µM | [14] 0.0504 µM | [15] 0.0353 µM | [16] 0.0498 µM | [17] 0.0202 µM | [18] < 0.01 µM | [19] < 0.01 µM | [20] 0.0147 µM | [21] < 0.01 µM | [22] < 0.01 µM | [23] < 0.01 µM | [24] < 0.01 µM | [26] 0.012 µM | [27] 0.0109 µM | [28] < 0.01 µM | [29] < 0.01 µM | [30] 0.0187 µM | [31] 0.0692 µM | [32] 0.0274 µM | [33] 0.305 µM | [34] 0.0581 µM | [35] 0.0143 µM | [36] < 0.01 µM | [37] 0.0224 µM | [38] < 0.01 µM | [39] 0.15 µM | [40] 0.0322 µM | [41] 0.132 µM | [42] < 0.01 µM | [43] < 0.01 µM | [44] 0.0266 µM | [45] < 0.01 µM | [46] < 0.01 µM | [47] 0.0659 µM | [48] 0.153 µM | [49] 0.0104 µM | [50] < 0.01 µM | [51] < 0.01 µM | [52] < 0.01 µM | [53] < 0.01 µM | [54] 0.257 µM | [55] < 0.01 µM | [56] < 0.01 µM | [57] 0.0112 µM | [58] 0.0333 µM | [59] < 0.01 µM
inactive: [25] 1.36 µM

CN(C)CCn1c(=O)c2ccc(NCCNCCO)c3c(=O)c4cc(O)ccc4n(c1=O)c23
active: [1] 0.655 µM | [3] 0.667 µM | [5] 0.91 µM | [6] 0.617 µM | [7] 0.938 µM | [8] 0.931 µM | [10] 0.875 µM | [11] < 0.0352 µM | [17] 1.01 µM | [18] 0.308 µM | [21] 0.532 µM | [23] 1.04 µM | [28] 0.661 µM | [30] 0.839 µM | [32] 0.258 µM | [33] 0.61 µM | [34] 0.586 µM | [35] 0.634 µM | [36] 0.571 µM | [38] 0.465 µM | [39] 0.586 µM | [43] 0.281 µM | [44] 0.895 µM | [45] 0.607 µM | [49] 0.483 µM | [50] 1.05 µM | [51] 0.991 µM | [53] 0.665 µM | [54] 0.367 µM | [55] 0.229 µM | [56] 0.664 µM | [57] 0.393 µM
inactive: [2] 10.9 µM | [4] 2.2 µM | [9] 2.39 µM | [13] 1.47 µM | [14] 2.58 µM | [15] 2.69 µM | [16] 4.43 µM | [19] 1.2 µM | [20] 1.49 µM | [22] 1.69 µM | [24] 2.42 µM | [25] 17.1 µM | [26] 1.47 µM | [27] 1.9 µM | [29] 1.12 µM | [31] 3.05 µM | [37] 4.43 µM | [40] 1.79 µM | [41] 4.63 µM | [42] 3.57 µM | [46] 5.55 µM | [47] 1.93 µM | [48] 2.31 µM | [52] 1.6 µM | [58] 2.55 µM | [59] 1.18 µM
5.31 µM: [12]

O=[N+]([O-])c1cc2oc(COc3ccccc3)nc2cc1Cl
18.7 µM: [12]
inactive: [1] 21.3 µM | [2] 20.8 µM | [3] 38.6 µM | [4] 25.9 µM | [5] 16.7 µM | [6] 33.1 µM | [7] 22.7 µM | [8] 22.8 µM | [9] 23.6 µM | [10] 32.3 µM | [11] 29.4 µM | [13] 17.1 µM | [14] 21.9 µM | [15] 19.5 µM | [16] 32.6 µM | [17] 17.1 µM | [18] 24.7 µM | [19] 18.7 µM | [20] 12.7 µM | [21] 43.2 µM | [22] 38.4 µM | [23] 38.8 µM | [24] 33.7 µM | [25] 21.4 µM | [26] 38.1 µM | [27] 22.1 µM | [28] 20 µM | [29] 35.2 µM | [30] 17 µM | [31] 27.2 µM | [32] 27.5 µM | [33] 22.5 µM | [34] 30.5 µM | [35] 20.6 µM | [36] 48.3 µM | [37] 22.1 µM | [38] 23.8 µM | [39] 22.1 µM | [40] 28.4 µM | [41] 35 µM | [42] 20.9 µM | [43] 18 µM | [44] 34.9 µM | [45] 33.5 µM | [46] 24.9 µM | [47] 33.1 µM | [48] 18.4 µM | [49] 20.4 µM | [50] 19.5 µM | [51] 40 µM | [52] 17.4 µM | [53] 32.5 µM | [54] 19.1 µM | [55] 22.2 µM | [56] 19 µM | [57] 47.4 µM | [58] 17.9 µM | [59] 23.7 µM
